{"source": "patent US9394298B2", "about": "“Pyrroloquinoline quinone tetraalkali salt and crystal thereof, methods for producing these, and composition” (Mitsubishi Gas Chemical Company, Inc., priority 2012, dated 2016)", "type_in_all_cases": "physicochemical", "key": {"[1]": {"test": "Test of the reactivity with ascorbic acid", "conditions": "for State of the solution after adding ascorbic acid, after 2 hours / State of the solution after adding ascorbic acid, after 1 day: 1 g/L PQQ salt in water, 1 mL + 0.5 mL of 100 g/L ascorbic acid aqueous solution", "method": "Each PQQ salt shown in Table 5 was dissolved in water so as to become 1 g/L. 0.5 mL of a 100 g/L ascorbic acid aqueous solution was added to 1 mL of the solution, and its states after 2 hours, after 1 day and after 2 days were observed."}, "[2]": {"test": "Test of the solubility", "conditions": "for Solubility Ratio: ratio to Comp. Ex. 1 (Na2PQQ = 1); for Solubility: room temperature of 23° C., calculated from absorbance at 260 nm", "method": "50 mg of each PQQ salt shown in Table 6 was added to 0.5 mL of water so as to become supersaturated. Here, in the case where a PQQ salt was completely dissolved in this concentration, the amount of water was reduced. Thereafter, an ultrasonic wave was applied on the solution at room temperature of 23° C. The solution was subjected to a centrifugal separator; and the supernatant was subjected to a UV measurement by diluting it using a phosphoric acid buffer (pH: 7.4, manufactured by Gibco Corp.) so that the absorbance at 260 nm became in the range of 0 to 1. The solubility was calculated from the absorption."}, "[3]": {"test": "Test of the dissolution speed", "conditions": "1 mg salt in 2 mL water; for Absorbance After 1 min / Absorbance After 30 min: absorbance at 450 nm, fully dissolved = 100", "method": "1 mg of each PQQ salt shown in Table 7 was added to an acryl-made absorbance measurement cell, and 2 mL of water was added thereto and the absorbance at 450 nm was measured."}, "[4]": {"test": "Stability in alkalinity, from the liquid chromatography chart", "conditions": "solid obtained from alkaline solution", "method": "PQQ was identified using the following apparatus.\nApparatus: a high performance liquid chromatography system, Lc-20A, manufactured by Shimadzu Corp.\nColumn: YMC-Pack ODS-Tms (5 μm), 150×4.6 mm I.D.\nMeasurement temperature: 40° C.\nDetection: absorbance at 260 nm"}}, "note": "Structures can show the parent of a compound that is named as a salt. Where two headings read alike, the source gives them in different places.", "data": [{"smiles": "O=C([O-])c1cc(C(=O)[O-])c2c(n1)C(=O)C(=O)c1cc(C(=O)O)[nH]c1-2.[Na+].[Na+]", "note": "[Comp. Ex. 1, PQQ Disodium Salt, reference compound]", "values": [{"measurement": "State of the solution after adding ascorbic acid, after 2 hours", "setting": "[1]", "result": "brown deposit"}, {"measurement": "State of the solution after adding ascorbic acid, after 1 day", "setting": "[1]", "result": "brown deposit"}, {"measurement": "Solubility Ratio", "setting": "[2]", "result": 1}, {"measurement": "Solubility", "setting": "[2]; water", "result": 7.99, "unit": "mM"}, {"measurement": "Absorbance After 1 min", "setting": "[3]", "result": 41}, {"measurement": "Absorbance After 30 min", "setting": "[3]", "result": 48}]}, {"smiles": "O=C(O)c1cc(C(=O)O)c2c(n1)C(=O)C(=O)c1cc(C(=O)O)[nH]c1-2", "note": "[Comp. Ex. 2, PQQ Trisodium Salt, reference compound]", "values": [{"measurement": "State of the solution after adding ascorbic acid, after 2 hours", "setting": "[1]; Trisodium Salt", "result": "brown deposit"}, {"measurement": "State of the solution after adding ascorbic acid, after 1 day", "setting": "[1]; Trisodium Salt", "result": "brown deposit"}, {"measurement": "Solubility Ratio", "setting": "[2]", "result": 3.8}, {"measurement": "Solubility", "setting": "[2]; water", "result": 30.4, "unit": "mM"}]}, {"smiles": "O=C(O)c1cc(C(=O)O)c2c(n1)C(=O)C(=O)c1cc(C(=O)O)[nH]c1-2", "note": "[Example 1, PQQ Tetrasodium Salt]", "values": [{"measurement": "State of the solution after adding ascorbic acid, after 2 hours", "setting": "[1]", "result": "red solution"}, {"measurement": "State of the solution after adding ascorbic acid, after 1 day", "setting": "[1]", "result": "red solution"}, {"measurement": "Color change with ascorbic acid in a long-term observation", "setting": "[1]", "result": "hardly generated color change"}, {"measurement": "Solubility Ratio", "setting": "[2]", "result": 58}, {"measurement": "Solubility", "setting": "[2]; thermodynamic from solid, water, read-out: Solubility", "result": 463, "unit": "mM"}, {"measurement": "Dissolution speed, in words", "setting": "[3]", "result": "higher dissolution speed than the PQQ disodium salt"}, {"measurement": "Absorbance After 1 min", "setting": "[3]", "result": 88}, {"measurement": "Absorbance After 30 min", "setting": "[3]", "result": 92}]}, {"smiles": "O=C(O)c1cc(C(=O)O)c2c(n1)C(=O)C(=O)c1cc(C(=O)O)[nH]c1-2.[Li].[Li].[Li].[Li]", "note": "[Example 5, PQQ Tetralithium Salt]", "values": [{"measurement": "State of the solution after adding ascorbic acid, after 2 hours", "setting": "[1]", "result": "red solution"}, {"measurement": "State of the solution after adding ascorbic acid, after 1 day", "setting": "[1]", "result": "red solution"}, {"measurement": "Solubility Ratio", "setting": "[2]", "result": 82}, {"measurement": "Solubility, in words", "setting": "[2]; water, 23° C.", "result": "more easily dissolved than the PQQ tetrasodium salt"}, {"measurement": "Solubility", "setting": "[2]; water", "result": 655, "unit": "mM"}, {"measurement": "Decomposed substances / stability in the alkalinity", "setting": "[4]", "result": "no decomposed substances and was stable even in the alkalinity"}]}, {"smiles": "O=C(O)c1cc(C(=O)O)c2c(n1)C(=O)C(=O)c1cc(C(=O)O)[nH]c1-2.[Li].[Li].[Na].[Na]", "note": "[Example 6, PQQ Disodium Dilithium Salt]", "values": [{"measurement": "State of the solution after adding ascorbic acid, after 2 hours", "setting": "[1]", "result": "red solution"}, {"measurement": "State of the solution after adding ascorbic acid, after 1 day", "setting": "[1]", "result": "red solution"}, {"measurement": "Solubility Ratio", "setting": "[2]", "result": 11}, {"measurement": "Solubility", "setting": "[2]; water", "result": 89, "unit": "mM"}, {"measurement": "Decomposed substances / stability in the alkalinity", "setting": "[4]", "result": "no decomposed substances and was stable even in the alkalinity"}]}, {"smiles": "O=C(O)c1cc(C(=O)O)c2c(n1)C(=O)C(=O)c1cc(C(=O)O)[nH]c1-2.[K].[K].[K].[K]", "note": "[Example 7, PQQ tetrapotassium salt]", "values": [{"measurement": "State of the solution after adding ascorbic acid, after 2 hours", "setting": "[1]", "result": "red solution"}, {"measurement": "State of the solution after adding ascorbic acid, after 1 day", "setting": "[1]", "result": "red solution"}, {"measurement": "Color change with ascorbic acid in a long-term observation", "setting": "[1]", "result": "hardly generated color change"}, {"measurement": "Solubility Ratio", "setting": "[2]", "result": 10.5}, {"measurement": "Solubility", "setting": "[2]; water", "result": 84, "unit": "mM"}, {"measurement": "Absorbance After 1 min", "setting": "[3]", "result": 71}, {"measurement": "Absorbance After 30 min", "setting": "[3]", "result": 85}, {"measurement": "Decomposed substances / stability in the alkalinity", "setting": "[4]", "result": "no decomposed substances and was stable even in the alkalinity"}]}]}
